# Experiments:
# Assay in all cases: microbe, parasite or virus in culture
# [1] = tested on: ABC clinical isolates with SUL-DUR MIC > 4 µg/mL; assay type: cell-based, Acinetobacter baumannii-calcoaceticus complex
# Method in brief: (§1)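 Broth microdilution MICs following CLSI methods, interpreted with CLSI breakpoints where available. Sulbactam tested as twofold dilutions combined with fixed 4 µg/mL durlobactam.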
# [2] = tested on: A. pittii clinical isolates; assay type: cell-based
# Method in brief: as §1
# [3] = tested on: A. nosocomialis clinical isolate; assay type: cell-based; conditions: isolate ARC7023 (IHMA 2118812), France, BSI, 2019
# Method in brief: as §1
# [4] = tested on: A. baumannii clinical isolates; assay type: cell-based
# Method in brief: as §1
structure (smiles),measurement,setting,value
NCC[C@H](O)C(=O)N[C@@H]1C[C@H](N)[C@@H](O[C@H]2O[C@H](CN)[C@@H](O)[C@H](O)[C@H]2O)[C@H](O)[C@H]1O[C@H]1O[C@H](CO)[C@@H](O)[C@H](N)[C@H]1O [AMK],MIC50,[1],>64 µg/mL
same,MIC90,[1],>64 µg/mL
same,MIC Max,[1],>64 µg/mL
same,MIC Min,[1],2 µg/mL
same,%NS (% non-susceptibility),"[1]; 64 non-clonal ABC isolates, 2023 CLSI breakpoints plus FDA breakpoint of 4 µg/mL for SUL-DUR",75%
same,MIC,"[2]; isolate ARC6949 (IHMA 1898982), Romania, RTI, 2018",>64 µg/mL
same,MIC,"[2]; isolate ARC6951 (IHMA 1776233), Philippines, RTI, 2018",32 µg/mL
same,MIC,"[2]; isolate ARC6952 (IHMA 1899008), Romania, RTI, 2018",>64 µg/mL
same,MIC,"[2]; isolate ARC7087 (IHMA 2212062), Colombia, BSI, 2020",8 µg/mL
same,MIC,[3],4 µg/mL
same,MIC,"[4]; isolate ARC6644 (IHMA 1420327), Mexico, UTI, 2016",>64 µg/mL
same,MIC,"[4]; isolate ARC6645 (IHMA 1435703), France, UTI, 2016",2 µg/mL
same,MIC,"[4]; isolate ARC6646 (IHMA 1484127), United States, RTI, 2016",>64 µg/mL
same,MIC,"[4]; isolate ARC6647 (IHMA 1386786), Argentina, RTI, 2016",>64 µg/mL
same,MIC,"[4]; isolate ARC6648 (IHMA 1407634), Spain, RTI, 2016",4 µg/mL
same,MIC,"[4]; isolate ARC6650 (IHMA 1457337), Argentina, RTI, 2016",16 µg/mL
same,MIC,"[4]; isolate ARC6652 (IHMA 1465642), Belgium, RTI, 2016",4 µg/mL
same,MIC,"[4]; isolate ARC6653 (IHMA 1308777), Vietnam, RTI, 2016",>64 µg/mL
same,MIC,"[4]; isolate ARC6799 (IHMA 1562935), Spain, UTI, 2017",64 µg/mL
same,MIC,"[4]; isolate ARC6800 (IHMA 1557526), Turkey, RTI, 2017",>64 µg/mL
same,MIC,"[4]; isolate ARC6801 (IHMA 1662094), Thailand, RTI, 2017",32 µg/mL
same,MIC,"[4]; isolate ARC6802 (IHMA 1557073), Spain, UTI, 2017",>64 µg/mL
same,MIC,"[4]; isolate ARC6803 (IHMA 1589408), Belgium, UTI, 2017",4 µg/mL
same,MIC,"[4]; isolate ARC6805 (IHMA 1558650), United States, RTI, 2017",>64 µg/mL
same,MIC,"[4]; isolate ARC6808 (IHMA 1557168), Spain, RTI, 2017",2 µg/mL
same,MIC,"[4]; isolate ARC6809 (IHMA 1699528), Guatemala, RTI, 2017",32 µg/mL
same,MIC,"[4]; isolate ARC6810 (IHMA 1699548), Guatemala, RTI, 2017",>64 µg/mL
same,MIC,"[4]; isolate ARC6812 (IHMA 1699530), Guatemala, RTI, 2017",4 µg/mL
same,MIC,"[4]; isolate ARC6813 (IHMA 1699543), Guatemala, UTI, 2017",32 µg/mL
same,MIC,"[4]; isolate ARC6814 (IHMA 1699512), Guatemala, RTI, 2017",>64 µg/mL
same,MIC,"[4]; isolate ARC6815 (IHMA 1699513), Guatemala, RTI, 2017",64 µg/mL
same,MIC,"[4]; isolate ARC6816 (IHMA 1699521), Guatemala, RTI, 2017",>64 µg/mL
same,MIC,"[4]; isolate ARC6817 (IHMA 1699523), Guatemala, RTI, 2017",16 µg/mL
same,MIC,"[4]; isolate ARC6818 (IHMA 1683261), Thailand, RTI, 2017",2 µg/mL
same,MIC,"[4]; isolate ARC6819 (IHMA 1683267), Thailand, RTI, 2017",>64 µg/mL
same,MIC,"[4]; isolate ARC6820 (IHMA 1647876), Argentina, RTI, 2017",4 µg/mL
same,MIC,"[4]; isolate ARC6821 (IHMA 1699517), Guatemala, RTI, 2017",2 µg/mL
same,MIC,"[4]; isolate ARC6822 (IHMA 1637626), Guatemala, RTI, 2017",8 µg/mL
same,MIC,"[4]; isolate ARC6823 (IHMA 1620872), Greece, SSSI, 2017",>64 µg/mL
same,MIC,"[4]; isolate ARC6824 (IHMA 1625487), Argentina, BSI, 2017",64 µg/mL
same,MIC,"[4]; isolate ARC6937 (IHMA 1562926), Spain, UTI, 2017",64 µg/mL
same,MIC,"[4]; isolate ARC6950 (IHMA 1820064), Israel, RTI, 2018",>64 µg/mL
same,MIC,"[4]; isolate ARC6953 (IHMA 1909827), Turkey, IAI, 2018",8 µg/mL
same,MIC,"[4]; isolate ARC6954 (IHMA 1838192), Guatemala, SSSI, 2018",16 µg/mL
same,MIC,"[4]; isolate ARC6955 (IHMA 1825425), United States, RTI, 2018",64 µg/mL
same,MIC,"[4]; isolate ARC7008 (IHMA 2009813), Thailand, BSI, 2019",>64 µg/mL
same,MIC,"[4]; isolate ARC7009 (IHMA 2043611), United States, UTI, 2019",>64 µg/mL
same,MIC,"[4]; isolate ARC7010 (IHMA 2043398), United States, RTI, 2019",>64 µg/mL
same,MIC,"[4]; isolate ARC7011 (IHMA 2104553), Germany, RTI, 2019",>64 µg/mL
same,MIC,"[4]; isolate ARC7012 (IHMA 2010001), Thailand, RTI, 2019",>64 µg/mL
same,MIC,"[4]; isolate ARC7013 (IHMA 1962831), Argentina, RTI, 2019",>64 µg/mL
same,MIC,"[4]; isolate ARC7014 (IHMA 2045328), Guatemala, IAI, 2019",>64 µg/mL
same,MIC,"[4]; isolate ARC7015 (IHMA 2045327), Guatemala, UTI, 2019",32 µg/mL
same,MIC,"[4]; isolate ARC7016 (IHMA 2148441), Brazil, BSI, 2019",>64 µg/mL
same,MIC,"[4]; isolate ARC7017 (IHMA 2148446), Brazil, BSI, 2019",64 µg/mL
same,MIC,"[4]; isolate ARC7018 (IHMA 2045454), Guatemala, IAI, 2019",32 µg/mL
same,MIC,"[4]; isolate ARC7019 (IHMA 2114463), Thailand, RTI, 2019",>64 µg/mL
same,MIC,"[4]; isolate ARC7020 (IHMA 2045326), Guatemala, RTI, 2019",>64 µg/mL
same,MIC,"[4]; isolate ARC7021 (IHMA 1966347), Guatemala, RTI, 2019",64 µg/mL
same,MIC,"[4]; isolate ARC7022 (IHMA 2045319), Guatemala, IAI, 2019",>64 µg/mL
same,MIC,"[4]; isolate ARC7024 (IHMA 2059448), Turkey, RTI, 2019",>64 µg/mL
same,MIC,"[4]; isolate ARC7025 (IHMA 2002121), Spain, RTI, 2019",2 µg/mL
same,MIC,"[4]; isolate ARC7026 (IHMA 2104494), Guatemala, BSI, 2019",64 µg/mL
same,MIC,"[4]; isolate ARC7082 (IHMA 2160640), Belgium, BSI, 2020",>64 µg/mL
same,MIC,"[4]; isolate ARC7083 (IHMA 2163687), United States, RTI, 2020",>64 µg/mL
same,MIC,"[4]; isolate ARC7084 (IHMA 2189596), Germany, RTI, 2020",>64 µg/mL
same,MIC,"[4]; isolate ARC7085 (IHMA 2205747), Guatemala, IAI, 2020",>64 µg/mL
same,MIC,"[4]; isolate ARC7086 (IHMA 2207563), Israel, RTI, 2020",>64 µg/mL
same,MIC,"[4]; isolate ARC7088 (IHMA 2215554), Turkey, BSI, 2020",>64 µg/mL
same,MIC,"[4]; isolate ARC7089 (IHMA 2240345), Argentina, BSI, 2020",2 µg/mL
same,MIC,"[4]; isolate ARC7090 (IHMA 2244410), Poland, RTI, 2020",>64 µg/mL
same,MIC,"[4]; isolate ARC7091 (IHMA 2244564), Australia, RTI, 2020",16 µg/mL
same,MIC,"[4]; isolate ARC7092 (IHMA 2258772), United States, BSI, 2020",>64 µg/mL
same,MIC,"[4]; isolate ARC7093 (IHMA 2258783), United States, RTI, 2020",>64 µg/mL
same,MIC,"[4]; isolate ARC7094 (IHMA 2296423), Turkey, RTI, 2020",64 µg/mL
same,MIC,"[4]; isolate ARC7095 (IHMA 2320843), Turkey, BSI, 2020",>64 µg/mL
same,MIC,"[4]; isolate ARC7156 (IHMA 2455450), Greece, RTI, 2021",>64 µg/mL
same,MIC,"[4]; isolate ARC7158 (IHMA 2523738), Italy, BSI, 2021",>64 µg/mL
same,MIC,"[4]; isolate ARC7159 (IHMA 2456229), Malaysia, RTI, 2021",>64 µg/mL
same,MIC,"[4]; isolate ARC7160 (IHMA 2458626), Thailand, RTI, 2021",>64 µg/mL
same,MIC,"[4]; isolate ARC7161 (IHMA 2429252), Ukraine, RTI, 2021",>64 µg/mL
same,MIC,"[4]; isolate ARC7162 (IHMA 2411847), United States, BSI, 2021",>64 µg/mL
same,MIC,"[4]; isolate ARC7163 (IHMA 2477704), United States, BSI, 2021",>64 µg/mL
